Values of other authors, collected in patent US6890568B2, “Method for management of blood glucose levels” (priority 1999, dated 2005).

Test system: insulin-deficient, streptozotocin-induced rat model of diabetes
Conditions: vanadate in the drinking water

In the case of `[O]=[V]([O-])([O-])[O-]` [vanadate], the control of diabetes is given as “shown to control diabetes” and the side effects is given as “life-threatening diarrhea”.
